Test results from US6303621A, “Method for treating cancers using a diiodo thyronine analogue having no significant hormonal activity and a vinca alkaloid and compositions comprising the same” (priority 1999, dated 2001).
Entries after “also recorded” stand apart in the source; their conditions may differ. One block for each compound: values may come before it.

Columns and labels:
malignant tumor growth = assay: Activity of DIME in vivo (general statement)
human cancer cells [1] = assay: Cytostatic / cytocidal activity of DIME analogues on human cancer cells; assay type: cell-based
Source text: Such tests may also screen for the ability of a particular compound to inhibit malignant tumor cell growth in vitro or in vivo or abolish tumorigenicity of malignant cells.
As will be appreciated by the skilled artisan, many varieties of malignant tumor cell cultures and cell lines may be used to screen for activity, including but not limited to HL-60, HT-144, E-ras-20, DU-145, MDA-168, MCF-7, 855-2 and MDA-MB-231. Of course, other in vitro and/or in vivo assays as will be apparent to the skilled artisan to screen for anti-tumor and/or anti-cancer activity may also be employed to identify effective diiodo thyronine analogues useful in the present invention.

human cancer cells [2] = conditions: studies set forth in U.S. Ser. Nos. 08/655,267 and 08/833,272; cited from earlier work
[3] = tested on: MDA-MB-231 human mammary cancer cells; assay: Colony formation (cell killing); assay type: cell-based; conditions: FIG. 4a
Protocol: (§1) c. MDA-MB-231 human mammary cancer cells were cultured and treated as reported previously by Mendeleyev et al., International Journal of Oncology 10:689-695 (1997) and Zhen et al., International Journal of Oncology 10:689-695 (1997). For the assay of cell growth kinetics cells, were seeded into 2cm^2 wells (24-well plates) at a density of 8×10^3 /cm^2 at the time of seeding. Vincristine (or vinblastine) and DIME (or DIPE) were added from DMSO dilutions (1-2 μl/ 500 μl culture mediim) either from separate drug solutions or for the construction of median effect plot (FIG. 1) from a pre-made mixture of both drugs (e.g. 0.75 μM DIME+2 nM vincristine) and simultaneous dilutions thereof (Chou et al. Eur. J. Biochem. 115: 207-216 (1981)). The cultures were incubated at 37° C. for 4 days and growth rates, leading to near confluency in drug-free controls, were monitored by cell counting in a haemocytometer after detachment by trypsin treatment Mendeleyev et al., International Journal of Oncology 10:689-695 (1997) and Zhen et al., International Journal of Oncology 10:689-695 (1997). Mathematical analysis of growth curves and median effects and isobolograms were carried out by published procedures (Chou et al. J. Theor. Biol. 65: 345-356 (1977), Chou et al. Eur. J. Biochem. 115: 207-216 (1981) and Chou et al. Adv. in Enzyme Regulation 22:27-55 (1984)) and error bars indicate SD=Σx^2 +L -(Σx)^2 /n where X is the numerical results with n=3-5.
e. Colony formation was quantitated as reported by. Each colony of 50 cells is the outgrowth from one cell, plated 10 days before colony counting.

[4] = tested on: esterase activity in certain tumor cells; assay: Stability to hydrolysis (esterase); conditions: versus DIME
microtubules = assay: Microtubule binding
tubulin α+β = assay: Inhibition of tubulin polymerization / assembly of microtubules; assay type: biochemical; conditions: FIG. 4b
Protocol: The optical tests were performed as reported by Buki et al., International Journal of Oncology 10:911-913 (1997).

[5] = tested on: MDA-MB-231 human mammary cancer cells; assay: Cell growth kinetics, median effect and isobologram; assay type: cell-based; conditions: 0.75 μM DIME (or DIPE) or 1-2 nM vincristine alone
Protocol: as §1
Kinetics of vincristine-DIME interactions: Interpretation of conventional isobolograms, consisting of plots of I50 values of two drugs alone and in combination is valid only if it is proven kinetically that both drugs bind at mutually exclusive sites.
Isobologram analysis of the combined action of DIME and vincristine is illustrated in FIG. 2, and it is evident that the action of the two drugs in combination exceed an additive effect, which is depicted by a concave curve, contrasting with additive action, which would display a straight line connecting the I50 values for each drug alone (dotted line in FIG. 2). […]

[6] = tested on: Ras and apoptosis-regulating kineses (ASK1), pathways; conditions: Wang et al.; cited from earlier work
[7] = tested on: non-malignant mouse pituitary adenoma; conditions: in vivo; cited from earlier work
tadpole metamorphosis = conditions: in vivo; cited from earlier work
thyroid = conditions: rat, in vivo; cited from earlier work
[8] = tested on: metaphase arrest in cancer cells; assay: Metaphase block (mitotic block); assay type: cell-based; conditions: FIG. 7
Source text: Metaphase was quantitated as reported by Mendeleyev et al., International Journal of Oncology 10:689-695 (1997).
Since vincristine and vinblastine were equivalent here we illustrate only DIME-vinblastine interaction on mitotic block.

caspase 3 [9] = assay: Caspase 3 in cell-free extracts treated with drugs; assay type: biochemical; conditions: results not shown
leukemias = conditions: in vivo; cited from earlier work
caspase 3 [10] = assay: Caspase 3 assay in drug-treated cells; assay type: cell-based, human; conditions: 0.75 μM DIME or 2 nM vincristine alone, 3 days
Protocol: g. Caspase 3 assay. MDA 231 cells were grown for 3 days in the absence of drugs (control) or in the presence of 0.75 μM DIME, or in the presence of 2 nM vincristine, or in the presence of both drugs. After harvesting and washing the cells with PBS, they were lysed in a lysis buffer (10 mM HEPES, 5 mM DTT, 2 mM EDTA, 1 mM PMSF, 0.1% CHAPS, 20 μg/ml each of aprotinin, leupeptin, pepstatin, pH 7.4), and were frozen and thawed 3 times. […] Each cell extract was incubated at room temperature with and without preincubation with the caspase inactivator DEVD-CMK. The difference of fluorescence was plotted against time. The fluorescence was calibrated with the fluorophore AFC.

[11] = vindesine versus vincristine; cited from earlier work

Structure (SMILES): CCCOc1ccc(Oc2c(I)cc(C(=O)OC)cc2I)cc1 [Compound 3]
Activity in vivo (malignant tumor growth): completely inactive | Cytostatic and cytocidal activity in cellular assays (human cancer cells [1]): completely inactive

Structure (SMILES): CCOC(=O)c1cc(I)c(Oc2ccc(OC)cc2)c(I)c1 [Compound 5, Ethyl 3,5-diiodo-4-(4'-methoxyphenoxy)benzoate]
Activity in vivo (malignant tumor growth): completely inactive | Cytostatic and cytocidal activity in cellular assays (human cancer cells [1]): completely inactive

Structure (SMILES): COC(=O)c1cc(I)c(Oc2ccc(OC)cc2Cl)c(I)c1 [Compound 14, Methyl 3,5-diiodo-4-(2'-chloro-4'-methoxyphenoxy)benzoate]
maximal inhibitory action on the growth of human cancer cells as compared to DIME (human cancer cells [2]): about 25%

Stability to hydrolysis [4]: non-hydrolyzable | Binding to microtubules (microtubules): bind to microtubules
Structure (SMILES): COc1ccc(Oc2c(I)cc(C(C)=O)cc2I)cc1 [DIPE, 1-[3,5-diiodo-4-(4'-methoxyphenoxy)-phenyl]-ethanone]
Inhibition of colony formation, DIME versus DIPE [3]: equivalency; also recorded: Equivalent effectivity | Inhibition of assembly of microtubules, DIME versus DIPE (tubulin α+β): equivalency; also recorded: Inhibitory effects | Growth rate with single drug [5]: do not elicit effects that exceed the SD of average cell growth rates

Structure (SMILES): CC(=O)O[C@H]1C(=O)[C@@]2(C)[C@H]([C@H](OC(=O)c3ccccc3)[C@]3(O)C[C@H](OC(=O)[C@H](O)[C@@H](NC(=O)c4ccccc4)c4ccccc4)C(C)=C1C3(C)C)[C@]1(OC(C)=O)CO[C@@H]1C[C@@H]2O [taxol]
Activation of Ras and ASK1 pathways [6]: can activate both Ras and apoptosis-regulating kineses (ASK1), pathways

Structure (SMILES): NC(Cc1cc(I)c(Oc2cc(I)c(O)c(I)c2)c(I)c1)C(=O)O (stereo not shown) [thyroxine, reference compound]
Growth of non-malignant mouse pituitary tumor [7]: depress growth | Metabolic or cell differentiating activity (tadpole metamorphosis) (tadpole metamorphosis): induces cell differentiation | Uptake of iodine by the thyroid (thyroid): suppresses uptake of iodine by the thyroid

Structure (SMILES): CC[C@]1(O)C[C@@H]2CN(CCc3c([nH]c4ccccc34)[C@@](C(=O)OC)(c3cc4c(cc3OC)N(C)[C@H]3[C@@](O)(C(=O)OC)[C@H](OC(C)=O)[C@]5(CC)C=CCN6CC[C@]43[C@@H]65)C2)C1 [vinblastine]
Combined action with DIME on metaphase arrest, vincristine versus vinblastine [8]: equivalent

Structure (SMILES): CC[C@]1(O)C[C@H]2CN(CCc3c([nH]c4ccccc34)[C@@](C(=O)OC)(c3cc4c(cc3OC)N(C=O)[C@H]3[C@@](O)(C(=O)OC)[C@H](OC(C)=O)[C@]5(CC)C=CCN6CC[C@]43[C@@H]65)C2)C1 [vincristine, reference compound]
Caspase 3 increase in cell-free extracts (caspase 3 [9]): do not show an increase in caspase 3 | Activity in leukemias (leukemias): most active and useful agent in the treatment of leukemias | Activation of caspase 3, single drug (caspase 3 [10]): small rate of caspase 3 activity | Combined action with DIME on metaphase arrest, vincristine versus vinblastine [8]: equivalent | Growth rate with single drug [5]: do not elicit effects that exceed the SD of average cell growth rates; also recorded: fall within SD values

Structure (SMILES): CC[C@]1(O)C[C@@H]2CN(CCc3c([nH]c4ccccc34)[C@@](C(=O)OC)(c3cc4c(cc3OC)N(C)[C@H]3[C@@](O)(C(N)=O)[C@H](O)[C@]5(CC)C=CCN6CC[C@]43[C@@H]65)C2)C1 [vindesine, 4-desacetyl vinblastine C-3 carboxamide]
Activity in leukemias (leukemias): active in certain leukemias | Neurotoxicity in humans [11]: less neurotoxicity than does vincristine
